# Experimental data: patent US8802705B2, “Pharmaceutical containing PPAR delta agonist” (Senju Pharmaceutical Co., Ltd., priority 2007, dated 2014)
# What was measured:
# [1] = system: corneal epithelial defect; assay: Promoting action on corneal epithelial wound healing after corneal epithelial scraping (Experimental Example 2); type: in vivo, Japanese white rabbits; settings: rabbit; for ratio of the remaining corneal epithelial defect: mean ± SD, N = 6
# Protocol: Male Japanese white rabbits (KITAYAMA LABES Co., Ltd.) were used. The experimental animals were used according to the International Guiding Principles for Biomedical Research involving Animals.
# Compound A was used as a test substance. Compound A was dissolved in the following vehicle at 0.0005% or suspended in the following vehicle at 0.005% and used as an instillation.
# As a control for the compound A administration group, the above-mentioned vehicle instillation group free of medicament was used.
# Animals received intramuscular injection (1 mL/kg) of a Selactal (2% xylazine; Bayer, Ltd.): Ketalar (5% ketamine; DAIICHI SANKYO COMPANY, LIMITED)=1:1 mixture for systemic anesthesia, and oxybuprocaine hydrochloride instillation (Benoxil instillation 0.4%; Santen Pharmaceutical CO., Ltd.) and then the eyeballs were exposed. Using a trephine with a diameter of 10 mm, a mark (diameter 10 mm) was stamped on the corneal epithelium in the central part of the cornea, and the entire corneal epithelial layer within the marked circle was scraped off with a handy rooter under a stereomicroscope. After scraping, the corneal surface was washed with physiological saline (OTSUKA PHARMACEUTICAL FACTORY, INC.), and the corneal epithelial scraping treatment was completed by placing the eyeball back in the orbitae.
# Compound A instillation or an instillation vehicle was instilled by 50 μL each time into the treated eye with a micropipette twice a day on the day of corneal epithelial scraping and four times a day from the next day to the completion of the test.
# Using the time point when the corneal epithelial scraping was completed in all animals as a test starting time (0 hr), the area of corneal epithelium defect was quantified 40, 48, 56 and 64 hr later, based on which wound healing of the corneal epithelium was evaluated. To be precise, 0.1% fluorescein sodium (Wako Pure Chemical Industries, Ltd.) solution (10 μL) was instilled into the treated eye at each time point, and the anterior ocular segment of the animals was immediately photographed using a slit lamp with a blue filter, whereby the fluorescein-stained corneal epithelial deficient region was recorded. The developed photograph was stored as digital images on a computer, and the area of the fluorescein-stained corneal epithelial defect was measured using an image analysis software (Image-Pro Plus).
# The area of the fluorescein-stained corneal epithelial defect measured at each time point was calculated based on the initial value of each animal as 100%, and taken as the ratio of the remaining corneal epithelial defect. The ratio of the remaining corneal epithelial defect at each time point was compared between the vehicle instillation group and compound A instillation group using the t-test. A critical value of less than 5% as a result of the test was judged as significant.
# [2] = system: Normal human corneal epithelial cells; assay: Effect on increase of cell number of normal human corneal epithelial cells (Experimental Example 1, Cell Counting Kit-8); type: cell-based; settings: for cell number increase rate: 24 hr stimulation, relative to non-addition group = 100%, mean ± SD, N = 3-4
# Protocol: Normal human corneal epithelial cells (KURABO) were used.
# As a test substance, [3-[2-[4-isopropyl-2-(4-trifluoromethyl)phenyl-5-thiazolyl]ethyl]-5-methyl-1,2-benzisoxazol-6-yl]oxyacetic acid (hereinafter to be referred to as compound A) was used. Compound A was dissolved in ethanol (Wako Pure Chemical Industries, Ltd.) to a concentration 200-fold of the final concentration in a culture medium, and the solution was stored at −80° C. until immediately before use.
# As a cell culture medium for consideration of the cell number-increasing effect by compound A, a culture medium (basal medium) obtained by adding insulin, hydrocortisone and transferrin contained in HCGS growth additive set (KURABO) to EpiLife (KURABO) was used.
# Normal human corneal epithelial cells cryopreserved in liquid nitrogen were thawed and the cell number was counted. The total amount thereof was transferred to EpiLife added with all of the HCGS growth additive set (insulin, epidermal growth factor mEGF derived from mouse, hydrocortisone, transferrin, bovine brain hypophysis extract) (4 mL, complete medium), and suspended well therein. The cell suspension was seeded on a fibronectin-coated 24 well plate (Becton Dickinson) at a cell number of 2×10^4 cells/500 μL/well (1×10^4 cells/cm^2 since bottom area was 2 cm^2).
# After completion of cell seeding, the culture plate was incubated in an incubator set to 37° C., 5% CO2, 95% air and 100% humidity for 24 hr, and the culture medium was changed to 400 μL of the basal medium (EpiLife added with insulin, hydrocortisone and transferrin from HCGS growth additives).
# After 24 hr thereafter, the culture medium was changed to the following culture medium (each 400 μL). • [1] basal medium alone (non-addition group) • [2] basal medium+mEGF (final concentration: 1 ng/mL; positive control group) • [3] basal medium+compound A (final concentration: 0.1 nM, 1 nM, 0.01 μM, 0.1 μM; compound A addition group)
# Ethanol (5 μL) was added to 1 mL each of culture media and [2] to uniformly set the ethanol concentration of all culture media to 0.5%.
# After 24 hr from the start of the stimulation with compound A, the culture supernatant was removed from each well, and a basal medium added with 10% Cell Counting Kit-8 (DOJINDO) was dispensed to each well by 200 μL. After dispensing, the culture plate was transferred to an incubator set to 37° C., 5% CO2, 95% air and 100% humidity and incubated for 2 hr. The supernatant (100 μL) was transferred to a 96 well culture plate for tissue culture (Corning), and the absorbance of each well at 450 nm was measured with a microplate reader (Dainippon Sumitomo Pharma Co., Ltd.), and used as an index of cell number increase.
# The values of the positive control group and the compound A addition group were calculated based on the average absorbance of the non-addition group as 100%, and the non-addition group was compared with the compound A addition group and positive control group according to the Dunnett multiple comparison test (one-tailed). A critical value of less than 5% as a result of the test was judged as significant.
structure (smiles),measurement,setting,value
"Cc1cc2c(CCc3sc(-c4ccc(C(F)(F)F)cc4)nc3C(C)C)noc2cc1OCC(=O)O [compound A, [3-[2-[4-isopropyl-2-(4-trifluoromethyl)phenyl-5-thiazolyl]ethyl]-5-methyl-1,2-benzisoxazol-6-yl]oxyacetic acid]",ratio of the remaining corneal epithelial defect,"[1]; 0.0005% instillation, 0 hr (initial value)",100.0 ± 0.0%
same,ratio of the remaining corneal epithelial defect,"[1]; 0.0005% instillation, 40 hr later, initial value = 100%",24.8 ± 2.7%
same,ratio of the remaining corneal epithelial defect,"[1]; 0.0005% instillation, 48 hr later, initial value = 100%",11.8 ± 2.9 %
same,ratio of the remaining corneal epithelial defect,"[1]; 0.0005% instillation, 56 hr later, initial value = 100%",3.8 ± 2.8%
same,ratio of the remaining corneal epithelial defect,"[1]; 0.0005% instillation, 64 hr later, initial value = 100%",0.8 ± 1.4%
same,ratio of the remaining corneal epithelial defect,"[1]; 0.005% instillation, 0 hr (initial value)",100.0 ± 0.0%
same,ratio of the remaining corneal epithelial defect,"[1]; 0.005% instillation, 40 hr later, initial value = 100%",18.6 ± 8.0 %
same,ratio of the remaining corneal epithelial defect,"[1]; 0.005% instillation, 48 hr later, initial value = 100%",9.1 ± 6.4 %
same,ratio of the remaining corneal epithelial defect,"[1]; 0.005% instillation, 56 hr later, initial value = 100%",3.4 ± 3.7%
same,ratio of the remaining corneal epithelial defect,"[1]; 0.005% instillation, 64 hr later, initial value = 100%",0.9 ± 1.3%
same,effect on wound healing of corneal epithelial defect (in words),"[1]; instillation 0.0005% or 0.005%, conclusion of the test",promotes wound healing of corneal epithelial defect
same,effect on cell number of normal human corneal epithelial cells (in words),"[2]; 0.1 nM-0.1 μM, conclusion of the test",increases the cell number of normal human corneal epithelial cells
same,cell number increase rate,[2]; 10^−7 M,172.6 ± 16.0%
same,cell number increase rate,[2]; 10^−8 M,187.4 ± 10.2%
same,cell number increase rate,[2]; 10^−9 M,169.0 ± 8.2%
same,cell number increase rate,[2]; 10^−10 M,177.4 ± 20.8%
